Common to all, as to format: cell-based, human
In test [1] the test system is DU-145 prostate cancer cells. Nature of the test: MTT cytotoxicity assay, DU-145. The following applies: Homo sapiens, DU-145, 72 h, 72 h incubation, mean ± SEM of three experiments, read-out: Cytotoxicity (GI50) against DU-145. An outline of the steps: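 72 h compound exposure (DMSO vehicle), RPMI-1640/10% calf serum, 37 °C, 5% CO2; triplicates. 1% MTT 4 h, DMSO solubilization, OD 450 nm. GI50 = conc. giving 50% cell death / 2-fold OD drop vs untreated wells; mean ± SEM of three independent experiments.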
In general terms: Tetrazolium assays rely on reduction of a dye to a coloured formazan, in cell work by metabolically active cells.

The test system of test [2] is SNB-19 cells. Nature of the test: Cell cycle analysis by flow cytometry (Hoechst 33342), SNB-19. Conditions: SNB-19, treated at GI50 concentration, 24 h. On the procedure:
Due to the fact that the implementation of the antitumor potential of the currently existing antitumor agents is carried out by acting on various biological targets, at the next stage we performed the cell cycle analysis and DNA synthesis. Cell cycle analysis of 1-hydroxy-4-phenyl-9,10-anthraquinone 13, 1-hydroxy-4-(2,3-dimethoxyphenyl)-9,10- anthraquinone 16, 1-hydroxy-4-(furan-3-yl)-9,10-anthraquinone 23 and 1-hydroxy- 2-(2,3-dimethoxyphenyl)-9,10-anthraquinone 28 against SNB-19 cells for 24 h produced interesting results. After examining the data for compounds 13 and 16 (Table 3, Figure 4C,D), good number of cells are distributed in S phase, i.e., initiated DNA replication mechanism and also in G0/G1 phase, i.e., initial phase of cell cycle. G1 and G2 are the growth phases in cell cycle analysis, whereas S phase is a synthetic phase wherein DNA replication and DNA synthesis take place. The 2-aryl substituted compound 28 initiated the G0/G1 phase in analogy with doxorubicin and mitomycin. […] Further, compounds play a vital role in controlling the regulation of Sub-G1 and G2/M phases. Some difference in the mechanism of operation of 4-aryl substituted 13,16 and 2-aryl substituted 9,10-anthraquinones 28 has been observed during the progression of cell cycle like: S phase was highly disturbed by 13; G0/G1 phase was highly disturbed by 28. […] This observation can be explained by the influence on the cell repair systems that respond to the intercalation of compounds in DNA. […] Further, mitoxantrone promotes the arrest of S phase of cell cycle.
For cell cycle analysis cells were seeded in 6-well plates (30,000 per plate) and incubate for adhesion for 24 h. […] Cells were washed with PBS twice, harvested, pelleted and resuspended in 0.5 mL of PBS. For staining the Hoechst 33342 Ready Flow Reagent (Invitrogen) was used according to the instruction. CytoFLEX flow cytometer (Beckman Coulter) was used for analysis. The results are presented as a percentage of cell population standing in different stages of the cell cycle.
Background: A flow cytometer gives signals particle by particle.

Test [3] concerns DU-145 cells. Nature of the test: DNA synthesis investigation (BrdU/PI flow cytometry), DU-145. Conditions: DU-145, treated at GI50 concentration, 24 h, BrdU 30 min.
Experimental: Cell cycle analysis was performed by Flow Cytometry using BrdU and PI staining [63]. For this experiment cells were seeded in 6-well plates (30,000 per plate) and incubate for adhesion for 24 h. […] For the next step the BrdU stock was added at a final concentration of 30 µM and cells were incubated for 30 min. Cells were washed with PBS, harvested using trypsine and resuspended at 0.3 mL of PBS. Permeabilization of cell membrane was performed as follows: 0.7 mL of ice-cold 100% EtOH was added into each sample, mixed gently and incubate at 4 °C for 1 h. Cells were pelleted and supernatant was removed completely. Then 0.5 mL of 2 N HCl/0.5% Triton X-100 was added and samples were incubated 30 min at room temperature. Cells were pelleted again, supernatant was removed. The pellet was resuspended in 0.5 mL of 0.1 M sodium tetraborate for 2 min and cells were pelleted again, washed with 150 µL of PBS/1% BSA and resuspended in 50 µM 0.5% Tween 20/1% BSA/PBS. […] After that the samples were resuspended in 0.5 mL of PBS containing 10 mg/mL RNAse A and 20 mg/mL PI. Samples were incubated at room temperature for 30 min and analyzed immediately or store at 4 °C. CytoFLEX flow cytometer (Beckman Coulter) was used for analysis. The results are presented as a percentage of cell population standing in DNA synthesis process.

The record followed here is publication PMC7321108, “1-Hydroxyanthraquinones Containing Aryl Substituents as Potent and Selective Anticancer Agents” (Molecules, 2020).

Broadly, the GI50 is the concentration that inhibits growth by half.

As to `COc1cccc(-c2ccc(O)c3c2C(=O)c2ccccc2C3=O)c1OC` [Compound 16, 1-(2,3-Dimethoxyphenyl)-4-hydroxyanthracene-9,10-dione], the GI50 in test [1] stood at 5.4 ± 0.17 µM. Also, in test [2], the “Population (% Cell Distribution) G0/G1” value amounted to 36.6%, the “Population (% Cell Distribution) G2/M” value came to 18.6%, the “Population (% Cell Distribution) S” value was 34.3% and the “Population (% Cell Distribution) Sub-G1” value is given as 3.0%. In addition, the “Population (% Cell Distribution) Super-G2” value in test [2] is given as 7.6%. The “Population (% Cell Distribution) DNA Synthesis” value in test [3] stood at 27.22%.
On to `O=C1c2ccccc2C(=O)c2c(-c3ccccc3)ccc(O)c21` [Compound 13, 1-Hydroxy-4-phenylanthracene-9,10-dione], for which the concentration for 50% growth inhibition (GI50) in test [1] is 1.1 ± 0.19 µM. Moreover, in test [2], the “Population (% Cell Distribution) G0/G1” value was determined as 29.0%, the “Population (% Cell Distribution) G2/M” value is reported as 13.9%, the “Population (% Cell Distribution) S” value was 48.5% and the “Population (% Cell Distribution) Sub-G1” value amounted to 4.0%. The “Population (% Cell Distribution) Super-G2” value in test [2] is reported as 4.6%. In test [3], the “Population (% Cell Distribution) DNA Synthesis” value amounted to 6.83%.
